Source: article PMC9918900, “New Succinimide–Thiazolidinedione Hybrids as Multitarget Antidiabetic Agents: Design, Synthesis, Bioevaluation, and Molecular Modelling Studies” (Molecules, 2023)

Tests used:
[1] = tested on: streptozotocin-induced diabetic rats; experiment: liver and renal serum biomarkers; format: in vivo, Wistar rats; conditions: 28th day
Method: (§1) Non-insulin-dependent diabetes mellitus was induced in fasted rats weighing 150–230 gm using a single dose of streptozotocin (STZ) at a dose of 60 mg/kg intraperitoneally after 15 min of the administration of nicotinamide at a 120 mg/kg dose i.p. Nicotinamide was prepared in normal saline while in citrate buffer (pH 4.5), STZ was prepared. After the induction of diabetes, the increase in the plasma glucose level was measured at 72 h and then measured on the 7th day to confirm hyperglycemia. For the diagnosis of diabetes, the threshold value of the fasting plasma glucose level was considered to be more than 126 mg/dl. For the study, only the animals with permanent NIIDM were utilized.
(§2) The animals were classified into 5 groups with 6 animals in each group (n = 6). Group I comprised of normal control rats which were daily administered drinking water only; group II served as diabetic control rats (disease group); group III served as the positive control and were administered 0.5 mg/kg of the standard drug glibenclamide; and group IV and V served as the test group rats and were administered the test compound 10d at 10 mg/kg and 20 mg/kg, respectively, for twenty-eight days. The fasting glucose concentration was measured on the 0, 7th, 14th, and 28th day of the administration of the extract. During the experimental tenure, the weights of the rats were determined daily and the mean change was recorded.
The animals were euthanized (sacrificed) via cervical dislocation on the 28th day to observe the biochemical parameters. The parameters studied were triglyceride (TGL), cholesterol, low-density lipoprotein, and high-density lipoprotein (LDL and HDL). The Minias Globe Diagnostic kits were used for cholesterol and TGL. Semi-autoanalyzers were used for the analysis. The serum samples from the rats were also checked for alanine aminotransferase (ALT), aspartate aminotransferase (AST), lactate dehydrogenase (LDH), serum alkaline phosphatase (ALP), and creatinine and urea levels utilizing commercially available kits of Crest Biosystems. The statistical analysis was also performed as per the previous procedure.

[2] = tested on: streptozotocin-induced diabetic rats; experiment: effect on body weight; format: in vivo, Wistar rats; conditions: for Change in Body Weight, After Treatment: 28 days
Method: The antidiabetic activity of the synthesized compound 10d was evaluated using a streptozotocin-induced diabetic rats model.
Male Wistar rats weighing 150 to 230 gm were used for the study which were housed in polyacrylic cages (no more than six animals per cage) with dimensions of 38 × 23 × 10 cm and maintained under standard laboratory conditions with a dark/light cycle of 14 h of dark and 10 h of light at a temperature of 25 °C. The animals were provided with a standard diet (dry pellet) and water ad libitum. Before the start of the experimental procedures, the rats were acclimatized to laboratory conditions for 10 days. All the experiments were approved and performed as per the guidelines of the Departmental Research Ethics Committee under letter No. DREC/050 [49].
as §1, §2

[3] = target: T1, PTP1B (Homo sapiens, UniProt P18031); experiment: PTP1B assay (pNPP substrate); format: biochemical
T1 sequence (P18031 1-435): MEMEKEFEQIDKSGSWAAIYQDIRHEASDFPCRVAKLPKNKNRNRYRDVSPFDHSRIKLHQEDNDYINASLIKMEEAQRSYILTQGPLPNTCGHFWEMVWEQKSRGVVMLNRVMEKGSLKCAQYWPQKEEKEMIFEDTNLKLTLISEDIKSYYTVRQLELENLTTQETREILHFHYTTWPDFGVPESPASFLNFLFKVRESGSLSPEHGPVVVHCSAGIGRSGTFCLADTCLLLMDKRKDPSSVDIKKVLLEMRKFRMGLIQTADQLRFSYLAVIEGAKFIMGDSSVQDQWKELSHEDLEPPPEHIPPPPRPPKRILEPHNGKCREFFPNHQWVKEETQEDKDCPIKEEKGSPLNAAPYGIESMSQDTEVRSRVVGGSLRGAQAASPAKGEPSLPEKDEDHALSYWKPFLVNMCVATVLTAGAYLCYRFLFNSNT
Method: The aforementioned newly synthesize succinimides and thiazolidinedione hybrids were tested against the PTP1B enzyme to determine their ability to inhibit the negative regulation of insulin as well as leptin signaling. The PTP1B test was performed with a small modification to the method described in the publications. The enzyme efficiency was evaluated using […] (pNPP) as a substrate. For the buffer solution, 0.5 millimolar (mM) of ethylene diamine tetraacetic acid (EDTA), 1 mM of mercaptoethanol, 0.55 mM of dithiothreitol (DTT), and 12.49 mM of TRIS hydrochloride (ph = 7.4) were used. The experiment was carried out by mixing 10.0 μL of the test compound solutions with 20.0 μL of the enzyme (1 μg/mL), subsequently injecting 40.0 μL of 4.0 mM 4-nitrophenyl dihydrogen phosphate in 130.5 μL of the prescribed buffer in a microplate well at 37 °C for 10 min. pNP was formed during the enzymatic process, which was monitored for 30 min. The IC50 values were derived using a non-linear regression analysis of the fraction of the product generated vs. the log of the inhibitory concentration.

[4] = tested on: rats; experiment: acute oral toxicity study, limit test (OECD up and down procedure); format: in vivo
Method: For the acute toxicity study, a limit test on the laboratory animals at 2000 mg/kg body weight was selected and the up and down procedure (UDP) was followed as per the guidelines of the Organization for Economic Cooperation and Development (OECD). The purpose was to evaluate the dose necessary to perform various pharmacological activities.
Healthy young adult male rats of about 8 to 12 weeks old were selected for dosing.
The rats were randomly selected, marked for an individual identification, and retained in their cages for at least 5 days before dosing to acclimatize to the laboratory conditions. Prior to dosing, the animals were fasted and they were refrained from food, not water, for 16–18 h.
After the fasting period, the weight of each animal was determined and according to the body weight of the animals, the dose at 2000 mg/kg body weight was calculated for each animal. A unique dose of the studied compound 10d was administered to the animals for the UDP study by the oral route using an intragastric cannula 16 G, and it was planned to dose the five animals on the same day. […] The onset time, toxic reactions, and length of the recovery period determined the duration of the observation and when considered necessary, may be extended. […] Individual observations were recorded and maintained systematically for each animal. […]

Question: For CC(C)(C=C1SC(=O)N(C(=O)CN2CCOCC2)C1=O)C1CC(=O)N(Cc2ccccc2)C1=O (centres unmarked) [10d], which ALP ([1]; 10mg (10 mg/kg)) is on record?
Answer: Its ALP is 184.43 ± 3.83 U/L.

Question: What about the ALT ([1]; 10mg (10 mg/kg)) of the same molecule?
Answer: The ALT was 136.80 ± 2.15 U/L.

Question: What about the AST ([1]; 10mg (10 mg/kg)) of the same molecule?
Answer: The AST was 123.40 ± 3.70 U/L.

Question: And the Creatinine ([1]; 10mg (10 mg/kg))?
Answer: The Creatinine was 0.51 ± 0.57 ^ns mg/dl.

Question: What about the LDH ([1]; 10mg (10 mg/kg)) of the same molecule?
Answer: Its LDH is 930.11 ± 4.26 U/L.

Question: And the Urea ([1]; 10mg (10 mg/kg))?
Answer: The Urea was 75.26 ± 2.44 mg/dL.

Question: What about the ALP ([1]; 20mg (20 mg/kg)) of the same molecule?
Answer: The ALP was 122.80 ± 2.00 U/L.

Question: And the ALT ([1]; 20mg (20 mg/kg))?
Answer: Its ALT is 60.42 ± 2.20 U/L.

Question: What about the AST ([1]; 20mg (20 mg/kg)) of the same molecule?
Answer: The AST was 94.32 ± 2.30 U/L.

Question: And the Creatinine ([1]; 20mg (20 mg/kg))?
Answer: The Creatinine was 0.42 ± 0.31 ^ns mg/dl.

Question: What about the LDH ([1]; 20mg (20 mg/kg)) of the same molecule?
Answer: The LDH was 850.53 ± 4.41 U/L.

Question: And the Urea ([1]; 20mg (20 mg/kg))?
Answer: The Urea was 51.53 ± 2.23 mg/dL.

Question: What about the “Change in Body Weight, After Induction” value ([2]; 10mg (10 mg/kg) group) of the same molecule?
Answer: The value was 154.22 ± 3.62 gm.

Question: What about the “Change in Body Weight, Before Induction” value ([2]; 10mg (10 mg/kg) group) of the same molecule?
Answer: The value was 191.23 ± 1.50 ^ns gm.

Question: What about the “Change in Body Weight, After Treatment” value ([2]; 10mg (10 mg/kg) group) of the same molecule?
Answer: The value was 182.43 ± 5.76 gm.

Question: What about the “Change in Body Weight, After Induction” value ([2]; 20mg (20 mg/kg) group) of the same molecule?
Answer: The value was 171.60 ± 1.90 ^ns gm.

Question: And the “Change in Body Weight, Before Induction” value ([2]; 20mg (20 mg/kg) group)?
Answer: The value was 204.66 ± 3.60 gm.

Question: And the “Change in Body Weight, After Treatment” value ([2]; 20mg (20 mg/kg) group)?
Answer: The value was 198.19 ± 4.66 gm.

Question: And the IC50 [3]?
Answer: The IC50 was 3.64 µM.

Question: What about the inhibition at 31.25 µM ([3]; 31.25 µM) of the same molecule?
Answer: The inhibition at 31.25 µM was 71.8%.

Question: What about the inhibition at 62.5 µM ([3]; 62.5 µM) of the same molecule?
Answer: Its inhibition at 62.5 µM is 74.7%.

Question: And the inhibition at 125 µM ([3]; 125 µM)?
Answer: Its inhibition at 125 µM is 79%.

Question: And the inhibition at 250 µM ([3]; 250 µM)?
Answer: The inhibition at 250 µM was 84.5%.

Question: And the inhibition at 500 µM ([3]; 500 µM)?
Answer: Its inhibition at 500 µM is 89.88 ± 0.89%.

Question: And the “acute toxicity observation (behavior, mortality)” value ([4]; limit dose 2000 mg/kg body weight, observed 14 days)?
Answer: The value was “no abnormal changes in their behavior and no mortality”.

Question: What about the “LD50 class as per OECD guidelines” value ([4]; maximum dose 2000 mg/kg) of the same molecule?
Answer: Its value is “class IV”.
